The record followed here is patent US10543212B2, “Substituted amines for treating cardiac diseases” (Cardurion Pharmaceuticals, LLC, priority 2017, dated 2020).

The target in the assay is T1, Full-length, GST-tagged, human CaMKIIδ (Homo sapiens, UniProt Q13557).
T1 construct: Full-Length, Glutathione-S-Transferase(GST)-Tagged, Human CaMKIIδ was purchased from Carna Biosciences; purchased Carna Biosciences 02-111
Kind of assay: CaMKIIδ binding assay (TR-FRET with BODIPY-labeled probe ligand). An outline of the steps: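 TR-FRET probe-displacement binding: 0.5 nM GST-CaMKIIδ with 10 μg/mL calmodulin, 1 mM CaCl2, 0.21 nM Tb-anti-GST Ab and 300 nM BODIPY probe in HEPES pH 7.6 buffer. Eight-point 4-fold dilutions, 1 hr at room temperature. IC50 from logistic fit; 100% inhibition defined by 3 μM parent compound.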

The mark [1] stands for this setting: Table 2, CaMKIIδ binding assay, activity given as class A/B/C.
The mark [2] stands for this setting: Table 2, activity class for CaMKIIδ.
The mark [3] stands for this setting: CaMKIIδ binding assay, results of Table 2.
The mark [4] stands for this setting: CaMKIIδ binding assay, activity class per Table 2.

T1 sequence (Q13557 1-478 isoform Q13557-12): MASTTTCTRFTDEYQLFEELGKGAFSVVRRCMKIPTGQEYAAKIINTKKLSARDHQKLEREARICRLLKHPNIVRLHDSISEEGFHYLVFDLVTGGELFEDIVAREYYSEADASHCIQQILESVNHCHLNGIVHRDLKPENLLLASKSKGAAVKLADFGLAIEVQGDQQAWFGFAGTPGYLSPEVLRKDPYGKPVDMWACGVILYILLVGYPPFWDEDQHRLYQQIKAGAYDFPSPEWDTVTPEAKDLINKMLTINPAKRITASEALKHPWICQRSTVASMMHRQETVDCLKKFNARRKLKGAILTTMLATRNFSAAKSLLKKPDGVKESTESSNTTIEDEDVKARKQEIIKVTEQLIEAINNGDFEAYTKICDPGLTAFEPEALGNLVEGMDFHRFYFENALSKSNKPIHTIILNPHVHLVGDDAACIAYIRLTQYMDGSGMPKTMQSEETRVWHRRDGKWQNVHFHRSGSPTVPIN

On to `C[C@@H](Cn1cnnn1)Oc1cc(-c2cnc(Nc3cn([C@H]4CC[C@@H](N5CC(O)(C(F)(F)F)C5)CC4)nc3C(F)(F)F)nc2)ccc1Cl` [Example 856, 1-(cis-4-(4-((5-(3-(((S)-1-(1H-tetrazol-1-yl)propan-2-yl)oxy)-4-chlorophenyl)pyrimidin-2-yl)amino)-3-(trifluoromethyl)-1H-pyrazol-1-yl)cyclohexyl)-3-(trifluoromethyl)azetidin-3-ol], for which the IC50 under setting [1] was 10 to 100 nM.
Take `COc1cc2c(cc1Nc1ncc(-c3ccc(Cl)c(O[C@@H](C)Cn4cnnn4)c3)cn1)N(C(=O)C(F)(F)F)CCC2` [Example 586, (S)-1-(7-((5-(3-((1-(1H-tetrazol-1-yl)propan-2-yl)oxy)-4-chlorophenyl)pyrimidin-2-yl)amino)-6-methoxy-3,4-dihydroquinolin-1(2H)-yl)-2,2,2-trifluoroethan-1-one]: the IC50 under setting [2] was no less than 100 nM.
`C[C@@H](Cn1cccn1)Oc1cc(-c2cnc(Nc3cn([C@H]4CC[C@H](N5CCOCC5)CC4)nc3C(F)(F)F)nc2)ccc1C#N` [Example 786, 2-(((S)-1-(1H-pyrazol-1-yl)propan-2-yl)oxy)-4-(2-((1-(trans-4-morpholinocyclohexyl)-3-(trifluoromethyl)-1H-pyrazol-4-yl)amino)pyrimidin-5-yl)benzonitrile]: under setting [1], the IC50 is 10 to 100 nM.
Under setting [2], `C[C@@H](Cn1cnnn1)Oc1cc(-c2cnc(Nc3cn(C4CCCCO4)nc3OCC(F)(F)F)nc2)ccc1Cl` (stereo partly drawn) [Example 678, 5-(3-(((S)-1-(1H-tetrazol-1-yl)propan-2-yl)oxy)-4-chlorophenyl)-N-(1-(tetrahydro-2H-pyran-2-yl)-3-(2,2,2-trifluoroethoxy)-1H-pyrazol-4-yl)pyrimidin-2-amine] yielded a half-maximal inhibitory concentration (IC50) of less than 10 nM.
Under setting [1], `C[C@@H](Cn1cnnn1)Oc1cc(-c2cnc(Nc3cn([C@H]4CC[C@@H](N5CCOCC5)CC4)nc3OCC(F)F)nc2)ccc1F` [Example 834, 5-(3-(((S)-1-(1H-tetrazol-1-yl)propan-2-yl)oxy)-4-fluorophenyl)-N-(3-(2,2-difluoroethoxy)-1-(cis-4-morpholinocyclohexyl)-1H-pyrazol-4-yl)pyrimidin-2-amine] showed an IC50 of 10 to 100 nM.
Turning to `CC(C)c1nn(C2CCN(C3CCOCC3)CC2)cc1Nc1ncc(-c2ccc(Cl)c(O[C@@H](C)Cn3cnnn3)c2)cn1` [Example 623, (S)-5-(3-((1-(1H-tetrazol-1-yl)propan-2-yl)oxy)-4-chlorophenyl)-N-(3-isopropyl-1-(1-(tetrahydro-2H-pyran-4-yl)piperidin-4-yl)-1H-pyrazol-4-yl)pyrimidin-2-amine], under setting [2], the IC50 was less than 10 nM.
In the case of `COc1ccc(N2CC(N3CCOCC3)C2)cc1Nc1ncc(-c2ccc(Cl)c(O[C@@H](C)Cn3cnnn3)c2)cn1` [Example 595, (S)-5-(3-((1-(1H-tetrazol-1-yl)propan-2-yl)oxy)-4-chlorophenyl)-N-(2-methoxy-5-(3-morpholinoazetidin-1-yl)phenyl)pyrimidin-2-amine], under setting [2], the IC50 lay within 10 to 100 nM.
In turn, `COc1cc2cc[nH]c2cc1Nc1ncc(-c2ccc(Cl)c(O[C@@H](C)Cn3cnnn3)c2)cn1` [Example 496, (S)-N-(5-(3-((1-(1H-tetrazol-1-yl)propan-2-yl)oxy)-4-chlorophenyl)pyrimidin-2-yl)-5-methoxy-1H-indol-6-amine] displayed an IC50 under setting [3] of 10 to 100 nM.
On to `C[C@@H](Cn1cnnn1)Oc1cc(-c2cnc(Nc3cn(C4CCN(C5CCOCC5)CC4)nc3C3CC3)nc2)ccc1Cl` [Example 545, (S)-5-(3-((1-(1H-tetrazol-1-yl)propan-2-yl)oxy)-4-chlorophenyl)-N-(3-cyclopropyl-1-(1-(tetrahydro-2H-pyran-4-yl)piperidin-4-yl)-1H-pyrazol-4-yl)pyrimidin-2-amine], for which the IC50 under setting [3] was less than 10 nM.
For `C[C@@H](Cn1cnnn1)Oc1cc(-c2cnc(Nc3cc4c(cc3Cl)CCNCC4)nc2)ccc1C#N` [Example 527, (S)-2-((1-(1H-tetrazol-1-yl)propan-2-yl)oxy)-4-(2-((8-chloro-2,3,4,5-tetrahydro-1H-benzo[d]azepin-7-yl)amino)pyrimidin-5-yl)benzonitrile], the IC50 under setting [3] was less than 10 nM.
With `C[C@@H](Cn1cnnn1)Oc1cc(-c2cnc(Nc3ccn(Cc4ccccc4)n3)nc2)ccc1Cl` [Example 714, (S)-5-(3-((1-(1H-tetrazol-1-yl)propan-2-yl)oxy)-4-chlorophenyl)-N-(1-benzyl-1H-pyrazol-3-yl)pyrimidin-2-amine], the IC50 under setting [2] fell in the range of 10 to 100 nM.
Compound `C[C@@H](Cn1cnnn1)Oc1cc(-c2cnc(Nc3cn(CC4CCCN4C4COC4)nc3C(F)(F)F)nc2)ccc1Cl` (stereo partly drawn) [Example 609, 5-(3-(((S)-1-(1H-tetrazol-1-yl)propan-2-yl)oxy)-4-chlorophenyl)-N-(1-((1-(oxetan-3-yl)pyrrolidin-2-yl)methyl)-3-(trifluoromethyl)-1H-pyrazol-4-yl)pyrimidin-2-amine] displayed an IC50 under setting [2] of 10 to 100 nM.
`COc1nc(N2CCN(C(=O)C(F)(F)F)CC2)ccc1Nc1ncc(-c2ccc(Cl)c(O[C@@H](C)Cn3cnnn3)c2)cn1` [Example 638, (S)-1-(4-(5-((5-(3-((1-(1H-tetrazol-1-yl)propan-2-yl)oxy)-4-chlorophenyl)pyrimidin-2-yl)amino)-6-methoxypyridin-2-yl)piperazin-1-yl)-2,2,2-trifluoroethan-1-one] gave an IC50 under setting [2] of no less than 100 nM.
`CCOc1nn(C2CCN(C3CCOCC3)CC2)cc1Nc1ncc(-c2ccc(Cl)c(O[C@@H](C)Cn3cnnn3)c2)cn1` [Example 587, (S)-5-(3-((1-(1H-tetrazol-1-yl)propan-2-yl)oxy)-4-chlorophenyl)-N-(3-ethoxy-1-(1-(tetrahydro-2H-pyran-4-yl)piperidin-4-yl)-1H-pyrazol-4-yl)pyrimidin-2-amine] showed a concentration for half-maximal inhibition (IC50) under setting [2] of less than 10 nM.
In the case of `C[C@@H](Cn1cccn1)Oc1cc(-c2cnc(Nc3cn(C4CCN(C5CCOCC5)CC4)nc3OCC(F)(F)F)nc2)ccc1C#N` [Example 782, (S)-2-((1-(1H-pyrazol-1-yl)propan-2-yl)oxy)-4-(2-((1-(1-(tetrahydro-2H-pyran-4-yl)piperidin-4-yl)-3-(2,2,2-trifluoroethoxy)-1H-pyrazol-4-yl)amino)pyrimidin-5-yl)benzonitrile], under setting [1], the IC50 was less than 10 nM.
As to `C[C@@H](Cn1cnnn1)Oc1cc(-c2cnc(Nc3cc(N4CCC(N5CCOCC5)CC4)cnc3OCC(F)(F)F)nc2)ccc1Cl` [Example 581, (S)-5-(3-((1-(1H-tetrazol-1-yl)propan-2-yl)oxy)-4-chlorophenyl)-N-(5-(4-morpholinopiperidin-1-yl)-2-(2,2,2-trifluoroethoxy)pyridin-3-yl)pyrimidin-2-amine], under setting [3], the 50% inhibitory concentration (IC50) was less than 10 nM.
Take `CC(Cn1cnnn1)Oc1cc(-c2cnc(Nc3cn(CC4(O)CCC(C)(O)CC4)nc3OCC(F)(F)F)nc2)ccc1Cl` [Example 924, cis-1-((4-((5-(3-(((S)-1-(1H-tetrazol-1-yl)propan-2-yl)oxy)-4-chlorophenyl)pyrimidin-2-yl)amino)-3-(2,2,2-trifluoroethoxy)-1H-pyrazol-1-yl)methyl)-4-methylcyclohexane-1,4-diol]: under setting [4], the IC50 was less than 10 nM.
Still for that read-out and setting: the result for `C[C@@H](Cn1cnnn1)Oc1cc(-c2cnc(Nc3cn(C4CC5(C4)CN(C(=O)OC(C)(C)C)C5)nc3C(F)(F)F)nc2)ccc1Cl` [Example 919, tert-butyl (S)-6-(4-((5-(3-((1-(1H-tetrazol-1-yl)propan-2-yl)oxy)-4-chlorophenyl)pyrimidin-2-yl)amino)-3-(trifluoromethyl)-1H-pyrazol-1-yl)-2-azaspiro[3.3]heptane-2-carboxylate] reads no less than 100 nM.
With `C[C@@H](Cn1cnnn1)Oc1cc(-c2cnc(Nc3cn(C4CC5(C4)CN(C4COCCOC4)C5)nc3OCC(F)(F)F)nc2)ccc1Cl` [Example 982, (S)—N-(1-(2-(1,4-dioxepan-6-yl)-2-azaspiro[3.3]heptan-6-yl)-3-(2,2,2-trifluoroethoxy)-1H-pyrazol-4-yl)-5-(3-((1-(1H-tetrazol-1-yl)propan-2-yl)oxy)-4-chlorophenyl)pyrimidin-2-amine], the IC50 under setting [4] was less than 10 nM.
Compound `CCc1cc2c(cc1Nc1ncc(-c3ccc(C#N)c(O[C@@H](C)Cn4cnnn4)c3)cn1)CN(C1COC1)CC2` [Example 516, (S)-2-((1-(1H-tetrazol-1-yl)propan-2-yl)oxy)-4-(2-((6-ethyl-2-(oxetan-3-yl)-1,2,3,4-tetrahydroisoquinolin-7-yl)amino)pyrimidin-5-yl)benzonitrile] yielded an IC50 under setting [3] of 10 to 100 nM.
Turning to `C[C@@H](Cn1cnnn1)Oc1cc(-c2cnc(Nc3cn(C4CCCCO4)nc3OCC(F)(F)F)nc2)ccc1C#N` (stereo partly drawn) [Example 763, 2-(((S)-1-(1H-tetrazol-1-yl)propan-2-yl)oxy)-4-(2-((1-(tetrahydro-2H-pyran-2-yl)-3-(2,2,2-trifluoroethoxy)-1H-pyrazol-4-yl)amino)pyrimidin-5-yl)benzonitrile], the IC50 under setting [1] is less than 10 nM.
As to `C[C@@H](Cn1cnnn1)Oc1cc(-c2cnc(Nc3cn(CC4(O)CCC4)nc3C(F)(F)F)nc2)ccc1Cl` [Example 855, (S)-1-((4-((5-(3-((1-(1H-tetrazol-1-yl)propan-2-yl)oxy)-4-chlorophenyl)pyrimidin-2-yl)amino)-3-(trifluoromethyl)-1H-pyrazol-1-yl)methyl)cyclobutan-1-ol], the IC50 under setting [1] was less than 10 nM.
Under setting [3], `C[C@@H](Cn1cnnn1)Oc1cc(-c2cnc(Nc3cn(C4CCN(Cc5cnn(C)c5)CC4)nc3C(F)(F)F)nc2)ccc1Cl` [Example 567, (S)-5-(3-((1-(1H-tetrazol-1-yl)propan-2-yl)oxy)-4-chlorophenyl)-N-(1-(1-((1-methyl-1H-pyrazol-4-yl)methyl)piperidin-4-yl)-3-(trifluoromethyl)-1H-pyrazol-4-yl)pyrimidin-2-amine] came in with an IC50 of less than 10 nM.
The compound `C[C@@H](Cn1cnnn1)Oc1cc(-c2cnc(Nc3cn(C4CCC(O)CC4)nc3C(F)(F)F)nc2)ccc1Cl` (stereo partly drawn) [Example 670, (S)-4-(4-((5-(3-((1-(1H-tetrazol-1-yl)propan-2-yl)oxy)-4-chlorophenyl)pyrimidin-2-yl)amino)-3-(trifluoromethyl)-1H-pyrazol-1-yl)cyclohexan-1-ol] gave an IC50 under setting [2] of 10 to 100 nM.

Usually IC50 stands for the concentration at which inhibition is half-maximal. Read a low IC50 as higher potency.
